Here are results for nine molecules from ChEMBL document CHEMBL5465560, “Selectivity Literature for EUbOPEN Chemogenomic Library” (2024).

Experiment [1] has as its target Tyrosine-protein kinase BTK (Homo sapiens, UniProt Q06187). Nature of the experiment: Selectivity interaction (Kinase panel (Z-LYTE Assay)) EUB0001632a BTK. As to conditions: at 10 µM.
For experiment [2], the target named is T1, Cyclin-dependent kinase 11A (Homo sapiens) (UniProt Q9UQ88).
T1 sequence (whole entry): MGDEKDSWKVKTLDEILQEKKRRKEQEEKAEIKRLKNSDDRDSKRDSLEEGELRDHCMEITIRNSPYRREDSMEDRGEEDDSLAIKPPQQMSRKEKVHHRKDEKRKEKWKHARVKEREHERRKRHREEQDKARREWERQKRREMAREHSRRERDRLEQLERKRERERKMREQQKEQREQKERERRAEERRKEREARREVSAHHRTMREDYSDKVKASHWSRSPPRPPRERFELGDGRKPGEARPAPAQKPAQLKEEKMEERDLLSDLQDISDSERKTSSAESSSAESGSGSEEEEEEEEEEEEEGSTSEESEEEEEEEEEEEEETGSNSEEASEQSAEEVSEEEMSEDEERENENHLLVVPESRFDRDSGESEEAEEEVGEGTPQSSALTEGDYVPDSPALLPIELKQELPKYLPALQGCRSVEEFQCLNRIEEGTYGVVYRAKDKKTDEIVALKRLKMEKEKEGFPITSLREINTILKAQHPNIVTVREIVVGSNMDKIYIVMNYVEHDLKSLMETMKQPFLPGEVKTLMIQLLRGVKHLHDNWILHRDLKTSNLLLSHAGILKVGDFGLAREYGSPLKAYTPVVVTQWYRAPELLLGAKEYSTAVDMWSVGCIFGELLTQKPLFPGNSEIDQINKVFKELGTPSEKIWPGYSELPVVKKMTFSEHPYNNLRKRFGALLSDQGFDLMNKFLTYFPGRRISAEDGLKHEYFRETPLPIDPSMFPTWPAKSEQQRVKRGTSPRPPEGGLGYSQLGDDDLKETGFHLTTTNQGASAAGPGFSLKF
Nature of the experiment: Selectivity interaction (LanthaScreen Eu Kinase Binding Assay) EUB0001632a CDK11A. As to conditions: at 10 µM. (TR-FRET usually uses a lanthanide donor and a delayed reading to cut background.)

In experiment [3] the target is Serine/threonine-protein kinase OSR1 (Homo sapiens) (UniProt O95747). Nature of the experiment: Selectivity interaction (LanthaScreen Eu Kinase Binding Assay) EUB0001632a OXSR1. Conditions: at 10 µM.
Experiment [4] addresses RAC-alpha serine/threonine-protein kinase (Homo sapiens, UniProt P31749). Nature of the experiment: Selectivity interaction (SelectScreen profiling (Invitrogen)) EUB0000607a AKT1. As to conditions: at 2 µM.
Experiment [5] concerns the target T2, Uncharacterized serine/threonine-protein kinase SBK3 (Homo sapiens) (UniProt P0C264).
T2 sequence (whole entry): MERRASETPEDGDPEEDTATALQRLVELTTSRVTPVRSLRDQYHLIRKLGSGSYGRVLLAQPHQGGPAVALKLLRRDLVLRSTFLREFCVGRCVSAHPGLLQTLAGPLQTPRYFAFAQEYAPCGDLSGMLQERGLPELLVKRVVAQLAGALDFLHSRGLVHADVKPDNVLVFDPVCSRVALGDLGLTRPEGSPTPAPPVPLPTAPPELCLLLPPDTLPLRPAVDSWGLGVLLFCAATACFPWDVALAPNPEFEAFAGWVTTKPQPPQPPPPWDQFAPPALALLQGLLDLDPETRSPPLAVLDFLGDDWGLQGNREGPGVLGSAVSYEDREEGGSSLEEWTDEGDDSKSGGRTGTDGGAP
Nature of the experiment: Selectivity interaction (KinomeScan (DiscoverX)) EUB0000666a SBK3. Conditions: at 10 µM.

In experiment [6] the target is T3, Serine/threonine-protein kinase D3 (Homo sapiens) (UniProt O94806).
T3 sequence (whole entry): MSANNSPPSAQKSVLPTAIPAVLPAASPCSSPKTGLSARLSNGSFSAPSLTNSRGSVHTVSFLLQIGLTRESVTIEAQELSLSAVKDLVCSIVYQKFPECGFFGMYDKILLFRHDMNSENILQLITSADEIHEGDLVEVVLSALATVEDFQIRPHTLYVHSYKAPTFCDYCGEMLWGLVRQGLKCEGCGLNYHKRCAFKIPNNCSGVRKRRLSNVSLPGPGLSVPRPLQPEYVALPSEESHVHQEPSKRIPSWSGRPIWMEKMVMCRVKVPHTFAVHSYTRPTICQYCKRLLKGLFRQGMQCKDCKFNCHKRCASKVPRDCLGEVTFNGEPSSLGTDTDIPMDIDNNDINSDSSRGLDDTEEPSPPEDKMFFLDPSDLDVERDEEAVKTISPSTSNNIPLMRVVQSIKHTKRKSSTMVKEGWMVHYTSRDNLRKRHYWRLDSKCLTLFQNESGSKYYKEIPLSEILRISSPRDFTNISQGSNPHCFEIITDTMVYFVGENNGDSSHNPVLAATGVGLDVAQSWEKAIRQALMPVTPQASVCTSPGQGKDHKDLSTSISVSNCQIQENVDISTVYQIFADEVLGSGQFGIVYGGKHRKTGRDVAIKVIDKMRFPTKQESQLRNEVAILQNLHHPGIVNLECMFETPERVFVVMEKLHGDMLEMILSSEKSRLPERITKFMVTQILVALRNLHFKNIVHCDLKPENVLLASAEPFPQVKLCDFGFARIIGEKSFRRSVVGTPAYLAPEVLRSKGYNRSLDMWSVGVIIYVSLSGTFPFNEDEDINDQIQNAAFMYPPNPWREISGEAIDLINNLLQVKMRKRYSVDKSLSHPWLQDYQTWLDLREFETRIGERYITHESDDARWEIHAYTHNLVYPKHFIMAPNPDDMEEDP
As to the kind of experiment: Selectivity interaction (KinomeScan (DiscoverX)) EUB0000655a PRKD3. As to conditions: at 10 µM.

The target in experiment [7] is Mitogen-activated protein kinase 8 (Homo sapiens, UniProt P45983). Nature of the experiment: Selectivity interaction (KinomeScan (DiscoverX)) EUB0001079a MAPK8. As to conditions: at 1 µM.
Experiment [8] concerns the target Tyrosine-protein kinase ABL1 (Homo sapiens, UniProt P00519). As to the kind of experiment: Selectivity interaction (ActivX KiNativ screen (kinase selectivity in THP-1 cell lysates)) EUB0000639a ABL1. The class given is subcellular. Conditions: lysate, at 0.01 µM.
For experiment [9], the target named is Serine/threonine-protein kinase PAK 3 (Homo sapiens) (UniProt O75914). Nature of the experiment: Selectivity interaction (Kinase panel (Invitrogen)) EUB0000639a PAK3. Conditions: at 200 nM.
The test system of experiment [10] is Mast/stem cell growth factor receptor Kit (Homo sapiens), P10721 [V559D]. Nature of the experiment: (§1) Selectivity interaction (KinomeScan (DiscoverX)) EUB0001049a KIT. As to conditions: at 1 µM.
Experiment [11] has as its system Mast/stem cell growth factor receptor Kit (Homo sapiens), P10721 [D816V]. The description is as §1. Conditions: at 1 µM.
Experiment [12] concerns the target Serine/threonine-protein kinase 33 (Homo sapiens) (UniProt Q9BYT3). As to the kind of experiment: Selectivity interaction (KinomeScan (DiscoverX)) EUB0000045b STK33.
For experiment [13], the target named is SRSF protein kinase 2 (Homo sapiens) (UniProt P78362). As to the kind of experiment: Selectivity interaction (Upstate Kinase Profiler service (Millipore)) EUB0000056c SRPK2. As to conditions: at 1 µM.

Sequence of Serine/threonine-protein kinase 33 (Homo sapiens) (Q9BYT3 whole entry, looked up): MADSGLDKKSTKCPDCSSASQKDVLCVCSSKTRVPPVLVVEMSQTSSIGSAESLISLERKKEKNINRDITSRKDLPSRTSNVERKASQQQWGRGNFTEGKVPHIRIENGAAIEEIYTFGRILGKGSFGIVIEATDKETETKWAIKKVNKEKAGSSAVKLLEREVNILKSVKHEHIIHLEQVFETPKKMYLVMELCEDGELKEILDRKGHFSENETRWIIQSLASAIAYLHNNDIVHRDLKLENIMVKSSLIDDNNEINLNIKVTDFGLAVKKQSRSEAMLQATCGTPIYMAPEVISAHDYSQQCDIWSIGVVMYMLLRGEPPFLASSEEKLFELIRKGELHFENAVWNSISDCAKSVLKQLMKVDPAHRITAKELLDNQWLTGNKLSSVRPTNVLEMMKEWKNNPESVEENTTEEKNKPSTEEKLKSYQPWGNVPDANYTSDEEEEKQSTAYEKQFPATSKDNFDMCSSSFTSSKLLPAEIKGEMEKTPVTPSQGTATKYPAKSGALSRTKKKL
Sequence of Mast/stem cell growth factor receptor Kit (Homo sapiens), P10721 [D816V] (P10721 whole entry D816V): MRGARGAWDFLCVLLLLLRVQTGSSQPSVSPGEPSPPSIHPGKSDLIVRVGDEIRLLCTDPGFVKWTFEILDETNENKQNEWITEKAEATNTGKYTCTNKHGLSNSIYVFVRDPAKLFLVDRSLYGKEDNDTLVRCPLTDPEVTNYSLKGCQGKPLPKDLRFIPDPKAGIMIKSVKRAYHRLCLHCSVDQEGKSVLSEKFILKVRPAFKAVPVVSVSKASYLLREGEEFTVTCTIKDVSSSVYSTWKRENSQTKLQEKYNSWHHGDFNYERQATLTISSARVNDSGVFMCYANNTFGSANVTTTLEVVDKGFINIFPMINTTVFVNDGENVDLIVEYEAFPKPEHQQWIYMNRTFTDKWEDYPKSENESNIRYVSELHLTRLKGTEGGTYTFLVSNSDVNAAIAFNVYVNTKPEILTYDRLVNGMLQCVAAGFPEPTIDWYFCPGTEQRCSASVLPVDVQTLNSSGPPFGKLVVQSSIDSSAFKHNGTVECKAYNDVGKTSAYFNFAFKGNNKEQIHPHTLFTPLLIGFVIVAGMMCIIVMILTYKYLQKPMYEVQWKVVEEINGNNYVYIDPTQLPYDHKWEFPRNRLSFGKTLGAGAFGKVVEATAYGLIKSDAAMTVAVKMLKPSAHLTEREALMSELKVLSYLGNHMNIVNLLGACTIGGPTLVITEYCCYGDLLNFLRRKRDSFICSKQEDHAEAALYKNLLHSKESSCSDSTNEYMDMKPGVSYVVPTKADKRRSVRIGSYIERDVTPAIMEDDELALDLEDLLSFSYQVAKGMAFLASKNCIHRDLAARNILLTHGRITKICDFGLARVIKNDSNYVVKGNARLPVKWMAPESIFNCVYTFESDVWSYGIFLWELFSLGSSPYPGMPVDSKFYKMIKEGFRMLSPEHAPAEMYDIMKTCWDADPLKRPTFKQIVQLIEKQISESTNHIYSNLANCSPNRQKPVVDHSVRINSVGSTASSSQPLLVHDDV
Sequence of Serine/threonine-protein kinase OSR1 (Homo sapiens) (O95747 2-527 limits assumed): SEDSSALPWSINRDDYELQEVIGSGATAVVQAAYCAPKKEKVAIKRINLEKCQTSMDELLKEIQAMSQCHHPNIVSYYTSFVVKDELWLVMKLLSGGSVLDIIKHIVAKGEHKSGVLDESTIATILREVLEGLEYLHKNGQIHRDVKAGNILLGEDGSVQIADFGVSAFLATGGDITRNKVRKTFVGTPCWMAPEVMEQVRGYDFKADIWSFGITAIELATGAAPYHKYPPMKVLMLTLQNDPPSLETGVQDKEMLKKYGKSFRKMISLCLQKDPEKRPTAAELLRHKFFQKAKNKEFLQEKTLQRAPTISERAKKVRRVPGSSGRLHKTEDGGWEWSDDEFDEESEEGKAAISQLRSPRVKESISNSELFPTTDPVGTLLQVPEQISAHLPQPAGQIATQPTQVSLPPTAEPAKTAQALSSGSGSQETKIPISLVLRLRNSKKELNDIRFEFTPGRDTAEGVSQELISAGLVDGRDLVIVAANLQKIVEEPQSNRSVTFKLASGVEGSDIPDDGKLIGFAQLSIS
Sequence of RAC-alpha serine/threonine-protein kinase (P31749 whole entry): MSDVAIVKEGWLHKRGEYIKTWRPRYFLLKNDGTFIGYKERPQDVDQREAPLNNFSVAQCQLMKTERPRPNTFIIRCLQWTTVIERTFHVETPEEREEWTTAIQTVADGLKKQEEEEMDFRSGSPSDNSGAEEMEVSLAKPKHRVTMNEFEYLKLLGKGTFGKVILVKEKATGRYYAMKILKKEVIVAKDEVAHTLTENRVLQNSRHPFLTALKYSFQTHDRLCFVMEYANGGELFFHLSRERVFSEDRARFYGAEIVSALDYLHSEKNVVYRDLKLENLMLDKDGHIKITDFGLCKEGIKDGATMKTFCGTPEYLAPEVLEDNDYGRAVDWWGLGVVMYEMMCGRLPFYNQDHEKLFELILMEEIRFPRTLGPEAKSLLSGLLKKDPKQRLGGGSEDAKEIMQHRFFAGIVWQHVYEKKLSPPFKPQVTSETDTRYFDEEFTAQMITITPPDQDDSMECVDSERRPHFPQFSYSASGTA
Sequence of Mitogen-activated protein kinase 8 (P45983 whole entry): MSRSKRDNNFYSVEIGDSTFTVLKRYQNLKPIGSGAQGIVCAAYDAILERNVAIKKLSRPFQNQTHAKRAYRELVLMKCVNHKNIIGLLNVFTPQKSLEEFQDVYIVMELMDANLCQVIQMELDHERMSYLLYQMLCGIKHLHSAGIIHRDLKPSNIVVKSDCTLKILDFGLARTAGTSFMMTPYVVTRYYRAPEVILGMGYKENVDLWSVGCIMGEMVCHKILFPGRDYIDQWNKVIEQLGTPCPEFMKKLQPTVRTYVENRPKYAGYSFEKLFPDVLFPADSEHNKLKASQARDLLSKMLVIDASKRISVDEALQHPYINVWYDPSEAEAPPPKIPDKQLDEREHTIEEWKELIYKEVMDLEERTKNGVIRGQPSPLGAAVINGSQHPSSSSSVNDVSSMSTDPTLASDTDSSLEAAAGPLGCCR
Sequence of Tyrosine-protein kinase BTK (Q06187 whole entry): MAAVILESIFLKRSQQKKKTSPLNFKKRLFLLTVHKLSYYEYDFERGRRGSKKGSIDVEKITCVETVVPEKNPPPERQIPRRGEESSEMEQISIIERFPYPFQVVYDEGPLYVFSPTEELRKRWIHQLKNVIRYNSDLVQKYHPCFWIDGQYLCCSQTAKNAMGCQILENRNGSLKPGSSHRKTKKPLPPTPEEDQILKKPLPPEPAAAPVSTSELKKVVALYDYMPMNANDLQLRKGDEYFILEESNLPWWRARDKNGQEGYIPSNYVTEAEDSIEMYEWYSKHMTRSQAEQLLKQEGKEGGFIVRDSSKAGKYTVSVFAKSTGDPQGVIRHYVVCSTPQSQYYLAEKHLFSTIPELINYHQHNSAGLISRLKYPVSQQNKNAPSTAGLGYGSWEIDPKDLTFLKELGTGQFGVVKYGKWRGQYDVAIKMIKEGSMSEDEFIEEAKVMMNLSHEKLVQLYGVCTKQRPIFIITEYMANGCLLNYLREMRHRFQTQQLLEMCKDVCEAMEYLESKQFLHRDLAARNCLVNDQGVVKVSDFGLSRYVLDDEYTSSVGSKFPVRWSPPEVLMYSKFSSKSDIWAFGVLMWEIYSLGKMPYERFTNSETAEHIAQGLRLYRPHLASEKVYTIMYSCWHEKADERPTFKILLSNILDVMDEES
Sequence of Tyrosine-protein kinase ABL1 (P00519 whole entry): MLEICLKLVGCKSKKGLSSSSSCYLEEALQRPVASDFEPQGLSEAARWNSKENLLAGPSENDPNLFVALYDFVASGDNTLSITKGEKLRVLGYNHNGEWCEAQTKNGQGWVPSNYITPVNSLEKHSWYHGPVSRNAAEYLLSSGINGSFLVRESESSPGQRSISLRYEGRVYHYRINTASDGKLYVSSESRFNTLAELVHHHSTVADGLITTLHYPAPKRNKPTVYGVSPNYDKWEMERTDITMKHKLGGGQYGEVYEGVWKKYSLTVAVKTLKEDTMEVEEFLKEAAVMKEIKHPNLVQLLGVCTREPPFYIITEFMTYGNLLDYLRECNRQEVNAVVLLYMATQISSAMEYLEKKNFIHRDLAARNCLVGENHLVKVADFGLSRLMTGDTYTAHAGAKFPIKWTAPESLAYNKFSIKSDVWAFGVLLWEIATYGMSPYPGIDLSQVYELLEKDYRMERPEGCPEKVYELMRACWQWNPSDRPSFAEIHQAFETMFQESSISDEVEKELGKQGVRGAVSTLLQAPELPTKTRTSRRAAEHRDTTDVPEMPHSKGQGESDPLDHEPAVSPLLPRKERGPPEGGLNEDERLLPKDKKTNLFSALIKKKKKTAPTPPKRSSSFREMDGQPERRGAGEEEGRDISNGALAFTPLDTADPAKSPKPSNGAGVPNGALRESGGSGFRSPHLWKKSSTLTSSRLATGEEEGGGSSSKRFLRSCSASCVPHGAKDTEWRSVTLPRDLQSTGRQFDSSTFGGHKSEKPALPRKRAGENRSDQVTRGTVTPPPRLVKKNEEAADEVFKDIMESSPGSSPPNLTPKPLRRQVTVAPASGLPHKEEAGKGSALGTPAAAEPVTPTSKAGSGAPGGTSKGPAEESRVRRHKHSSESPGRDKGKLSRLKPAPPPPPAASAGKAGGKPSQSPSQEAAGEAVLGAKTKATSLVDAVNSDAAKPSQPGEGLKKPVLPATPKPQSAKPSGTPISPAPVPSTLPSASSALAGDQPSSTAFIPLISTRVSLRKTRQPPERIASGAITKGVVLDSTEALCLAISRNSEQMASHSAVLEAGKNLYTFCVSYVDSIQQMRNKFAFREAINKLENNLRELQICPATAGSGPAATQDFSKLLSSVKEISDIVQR
Sequence of Mast/stem cell growth factor receptor Kit (Homo sapiens), P10721 [V559D] (P10721 whole entry V559D): as the sequence (P10721 whole entry D816V) above, with V559D, V816D counted along it

For `Cn1cc(-n2cnc3c(NCc4nc5cc(Cl)c(Cl)cc5[nH]4)nc(N4CCOCC4)nc32)cn1`, the % of control in experiment [1] is -7.51%. For the same molecule, the % of inhibition in experiment [2] is -1.94%; in [3], -23%.

Consider `CNC(=O)Nc1ccc(-c2nc(N3CC4CCC(C3)O4)c3cnn(C4CCC5(CC4)OCCO5)c3n2)cc1`, for which, in [4], the % of inhibition was -5%.

In the case of `O=C(NOC[C@H](O)CO)c1ccc(F)c(F)c1Nc1ccc(I)cc1F`, the % of control in [5] came to 100%.

In the case of `CN(C)CCOc1ccc(-c2nc(-c3ccncc3)c(-c3ccc4c(c3)CC/C4=N\O)[nH]2)cc1`, the % of control in experiment [6] is 40%.

Regarding `Nc1cnc(N2CCc3cc(S(=O)(=O)Nc4c(F)cc(Cl)cc4F)cc(N4CCCC4=O)c32)nc1` [TP-020n], the % of control in experiment [7] came out at 78%.

For `CC[C@@H]1[C@H](F)C(=O)N[C@@H]1COc1nccc2cc(C(N)=O)c(OC)cc12` [ZIMLOVISERTIB], the values for the % of inhibition in [8] and in experiment [9] were 52% and 0.439%, respectively.

`COc1cc(Nc2nc(C)cc(-c3cnn4nc(OC)ccc34)n2)cc(C(F)(F)F)c1`: the % of control in [10] was 80%; in experiment [11], 96%.

As for `C=CC(=O)Nc1cc(-n2c(=O)ccc3cnc4ccc(-c5ccc(NS(C)(=O)=O)cc5)cc4c32)ccc1C`, the figures for the % of control in experiment [12] (at 1 µM) and in [12] (at 10 µM) were 100% and 95%, respectively.

As for `Cc1ccc(-c2ccc3c(ccc4sc5c(c43)NC[C@@H](C)NC5=O)n2)cn1`, the % of inhibition in [13] turned out to be 33%.
